Key:
HCT116p53KO xenografts = assay: In vivo treatment of drug-resistant xenografts; details: for average volume of the tumor masses: after 28 days, ibrutinib 25 mpk oral gavage once a day 5 days a week, 5FU 60 mg/kg i.p. twice a week
HCT116 cells = assay: Photographs of cells at 72 hours of incubation (FIG. 5b); details: 10 μM 5FU or 20 μM ibrutinib
[1] = test system: HCT116 overexpressing p65BTK (HCT116p65BTK); details: 200 μM 5FU, 72 hours
HCT116 xenografts = assay: In vivo treatment of drug-sensitive xenografts; details: for average volume of the tumor masses: after 28 days; for average volume of the tumor masses / significance of difference in tumor size vs vehicle-treated (untreated) group: 5FU 60 mpk
[2] = test system: HCT116p53KO, SW480, HT-29, HCT116 and RKO colon carcinoma cell lines; assay: Cell viability, calcein assay, ibrutinib alone (FIG. 15); format: cell-based; details: 72 hs
[3] = test system: HCT116p53KO, SW480, DLD-1 and HCT116 colon carcinoma cell lines; assay: In vitro cell proliferation assay (short term, CellTiter 96 AQueous); format: cell-based; details: ibrutinib 0 to 10 μM, up to 72 h
SW480 colon cancer cells = assay: Cell viability, calcein assay (FIG. 6); format: cell-based; details: ibrutinib 20 μM with 5FU 200 μM or oxaliplatin 20 μM; oxaliplatin 20 μM alone; 72 hs
Protocol: At the end of the treatment cell viability was evaluated by calcein assay.

`O=c1[nH]cc(F)c(=O)[nH]1` [5FU, 5-fluoro-1H,3H-pyrimidine-2,4-dione] was tested, and the “average volume of the tumor masses” value (HCT116p53KO xenografts) was “≈ 530 mm^3”, the “significance of reduction in tumor volume vs the untreated group” value (HCT116p53KO xenografts; ibrutinib 25 mpk, 5FU 60 mpk, end of treatment (FIG. 9b)) was “not significant” and the “toxicity seen in photographs, drugs used singularly” value (HCT116 cells) was “no toxicity is evident”. For the same compound, the “viability: response to the cytotoxic effect of 5FU” value [1] was “become resistant to the cytotoxic effect of 5FU”, the “average volume of the tumor masses” value (HCT116 xenografts; ibrutinib 25 mpk) was “≈ 226 mm^3” and the “average volume of the tumor masses” value (HCT116 xenografts; ibrutinib 50 mpk) was “≈ 226 mm^3”. For the same compound, the “significance of difference in tumor size vs vehicle-treated (untreated) group” value (from here on “significance of difference in tumor size”) (HCT116 xenografts; ibrutinib 25 mpk) was “significant”, the “percentage of proliferating (Ki67-positive) cells compared to vehicle or ibrutinib alone” value (HCT116 xenografts; ibrutinib 25 mpk, 5FU 60 mpk (FIG. 12b)) was “significantly reduces the percentage of proliferating cells” and the “significance of difference in tumor size” value (HCT116 xenografts; ibrutinib 50 mpk) was “significant”. The “percentage of proliferating (Ki67-positive) cells compared to vehicle or ibrutinib alone” value (HCT116 xenografts; ibrutinib 50 mpk, 5FU 60 mpk (FIG. 13b)) was “significantly reduces the percentage of proliferating cells”.

In the case of `C=CC(=O)N1CCC[C@@H](n2nc(-c3ccc(Oc4ccccc4)cc3)c3c(N)ncnc32)C1` [ibrutinib, 1-[(3R)-3-[4-amino-3-(4-phenoxyphenyl)pyrazolo[3,4-d]pyrimidin-1-yl]piperidin-1-yl]prop-2-en-1-one], the “average volume of the tumor masses” value (HCT116p53KO xenografts) is reported as “≈ 760 mm^3”, the “anti-tumoral effect (tumor volume vs untreated group)” value (HCT116p53KO xenografts; ibrutinib 50 mpk alone (FIG. 10b)) is reported as “has an anti-tumoral effect on its own” and the “toxicity by cell type” value ([2]; highest concentration of ibrutinib (range 0 to 30 μM)) is reported as “preferentially toxic for 5FU drug-resistant, p53-null”. For the same compound, the viability ([2]; ibrutinib up to 20 μM, all cell lines) was “decreases the viability in a dose-dependent manner”, the “toxicity seen in photographs, drugs used singularly” value (HCT116 cells) was “no toxicity is evident” and the “capacity of the cells to proliferate” value [3] was “does not alter the capacity of the cells to proliferate”. For the same compound, the “average volume of the tumor masses” value (HCT116 xenografts; ibrutinib 25 mpk) was “≈ 347 mm^3”, the “average volume of the tumor masses” value (HCT116 xenografts; ibrutinib 50 mpk) was “≈ 372 mm^3” and the “significance of difference in tumor size” value (HCT116 xenografts; ibrutinib 25 mpk) was “not statistically significant”. The “significance of difference in tumor size” value (HCT116 xenografts; ibrutinib 50 mpk) was “not statistically significant” and the “growth-reducing and anti-proliferative effect on sensitive xenografts” value (HCT116 xenografts; ibrutinib alone, 25 or 50 mpk) was “by itself is ineffective in these kind of tumors”.

`O=C(O)C(=O)O.[NH-][C@@H]1CCCC[C@H]1[NH-].[Pt+2]` [oxaliplatin] was tested, and the “reversion of drug resistance (viability)” value (SW480 colon cancer cells) was “Reversion of resistance was not obtained”.

— patent publication US20160193211A1, “COMBINATIONS OF A BTK INHIBITOR AND FLUOROURACIL FOR TREATING CANCERS” (priority 2013, published 2016)
